Experimental data published in ChEMBL document CHEMBL4190297, “Cafestol, a Bioactive Substance in Coffee, Has Antidiabetic Properties in KKAy Mice” (J Nat Prod, 2017).
Active and inactive are the calls of the source. The rule behind the calls is not given here.

What was measured:
Mus musculus [1] = organism: Mus musculus; test: Effect on Lipc mRNA expression levels in adipose tissue of KK-Ay diabetic mouse model at 0.4 to 1.1 mg added daily to normal chow pellets for 10 weeks by qRT-PCR analysis; format: functional, organism-based
Mus musculus [2] = organism: Mus musculus; test: Toxicity in KK-Ay diabetic mouse model assessed as effect on average 24 hrs food consumption by measured food consumption at 0.4 mg added daily to normal chow pellets for 10 weeks (reference value: 4.7 +/- 0.2 g); format: organism-based; settings: in vivo, po
Mus musculus [3] = organism: Mus musculus; test: Effect on Adipor1 mRNA expression levels in liver of KK-Ay diabetic mouse model at 0.4 to 1.1 mg added daily to normal chow pellets for 10 weeks by qRT-PCR analysis; format: functional, organism-based
Mus musculus [4] = organism: Mus musculus; test: Effect on G6PD mRNA expression levels in muscle of KK-Ay diabetic mouse model at 0.4 to 1.1 mg added daily to normal chow pellets for 10 weeks by qRT-PCR analysis; format: functional, organism-based
Mus musculus [5] = organism: Mus musculus; test: Effect on Akt2 mRNA expression levels in adipose tissue of KK-Ay diabetic mouse model at 0.4 to 1.1 mg added daily to normal chow pellets for 10 weeks by qRT-PCR analysis; format: functional, organism-based
Mus musculus [6] = organism: Mus musculus; test: Effect on SOD2 mRNA expression levels in liver of KK-Ay diabetic mouse model at 0.4 to 1.1 mg added daily to normal chow pellets for 10 weeks by qRT-PCR analysis; format: functional, organism-based
Mus musculus [7] = organism: Mus musculus; test: Effect on FAS mRNA expression levels in adipose tissue of KK-Ay diabetic mouse model at 0.4 to 1.1 mg added daily to normal chow pellets for 10 weeks by qRT-PCR analysis; format: functional, organism-based
Mus musculus [8] = organism: Mus musculus; test: Antidiabetic activity in KK-Ay diabetic mouse model assessed as decrease in GCRG mRNA expression levels in muscle tissue at 0.4 mg added daily to normal chow pellets for 10 weeks by qRT-PCR analysis; format: functional, organism-based
Mus musculus [9] = organism: Mus musculus; test: Toxicity in KK-Ay diabetic mouse model assessed as effect on average 24 hrs food consumption by measured food consumption at 1.1 mg added daily to normal chow pellets for 10 weeks (reference value: 4.7 +/- 0.2 g); format: organism-based; settings: in vivo, po
Mus musculus [10] = organism: Mus musculus; test: Effect on SOD1 mRNA expression levels in adipose tissue of KK-Ay diabetic mouse model at 0.4 to 1.1 mg added daily to normal chow pellets for 10 weeks by qRT-PCR analysis; format: functional, organism-based
Mus musculus [11] = organism: Mus musculus; test: Effect on JNK1 mRNA expression levels in liver of KK-Ay diabetic mouse model at 0.4 to 1.1 mg added daily to normal chow pellets for 10 weeks by qRT-PCR analysis; format: functional, organism-based
Mus musculus [12] = organism: Mus musculus; test: Effect on PPARGC1alpha mRNA expression levels in muscle of KK-Ay diabetic mouse model at 0.4 to 1.1 mg added daily to normal chow pellets for 10 weeks by qRT-PCR analysis; format: functional, organism-based
Mus musculus [13] = organism: Mus musculus; test: Effect on PKCdelta mRNA expression levels in muscle of KK-Ay diabetic mouse model at 0.4 to 1.1 mg added daily to normal chow pellets for 10 weeks by qRT-PCR analysis; format: functional, organism-based
Mus musculus [14] = organism: Mus musculus; test: Toxicity in KK-Ay diabetic mouse model assessed as effect on body weight at 0.4 mg added daily to normal chow pellets for 4 weeks; format: organism-based; settings: in vivo, po, 672 h
Mus musculus [15] = organism: Mus musculus; test: Effect on Hprt1 mRNA expression levels in liver of KK-Ay diabetic mouse model at 0.4 to 1.1 mg added daily to normal chow pellets for 10 weeks by qRT-PCR analysis; format: functional, organism-based
Mus musculus [16] = organism: Mus musculus; test: Effect on Abca1 mRNA expression levels in liver of KK-Ay diabetic mouse model at 0.4 to 1.1 mg added daily to normal chow pellets for 10 weeks by qRT-PCR analysis; format: functional, organism-based
Mus musculus [17] = organism: Mus musculus; test: Effect on PPARgamma mRNA expression levels in adipose tissue of KK-Ay diabetic mouse model at 0.4 to 1.1 mg added daily to normal chow pellets for 10 weeks by qRT-PCR analysis; format: functional, organism-based
Mus musculus [18] = organism: Mus musculus; test: Effect on GLUT2 mRNA expression levels in adipose tissue of KK-Ay diabetic mouse model at 0.4 to 1.1 mg added daily to normal chow pellets for 10 weeks by qRT-PCR analysis; format: functional, organism-based
Mus musculus [19] = organism: Mus musculus; test: Induction of […] glucose-stimulated insulin secretion in pancreatic islets isolated from KK-Ay diabetic mouse model at 1.1 mg added daily to normal chow pellets for 10 weeks followed by glucose stimulation of isolated pancreatic islets for 1 hr by radioimmunoassay relative to control; format: functional
Mus musculus [20] = organism: Mus musculus; test: Effect on CD36 mRNA expression levels in adipose tissue of KK-Ay diabetic mouse model at 0.4 to 1.1 mg added daily to normal chow pellets for 10 weeks by qRT-PCR analysis; format: functional, organism-based
Mus musculus [21] = organism: Mus musculus; test: Effect on Adipor1 mRNA expression levels in adipose tissue of KK-Ay diabetic mouse model at 0.4 to 1.1 mg added daily to normal chow pellets for 10 weeks by qRT-PCR analysis; format: functional, organism-based
Mus musculus [22] = organism: Mus musculus; test: Antidiabetic activity in KK-Ay diabetic mouse model assessed as non-fasting blood glucose level at 0.4 mg added daily to normal chow pellets for 10 weeks (reference value: 26.2 +/- 1.2 mmol/L); format: functional
Mus musculus [23] = organism: Mus musculus; test: Effect on GYS2 mRNA expression levels in liver of KK-Ay diabetic mouse model at 0.4 to 1.1 mg added daily to normal chow pellets for 10 weeks by qRT-PCR analysis; format: functional, organism-based
Mus musculus [24] = organism: Mus musculus; test: Effect on CD36 mRNA expression levels in muscle of KK-Ay diabetic mouse model at 0.4 to 1.1 mg added daily to normal chow pellets for 10 weeks by qRT-PCR analysis; format: functional, organism-based
Mus musculus [25] = organism: Mus musculus; test: Effect on Lipc mRNA expression levels in muscle of KK-Ay diabetic mouse model at 0.4 to 1.1 mg added daily to normal chow pellets for 10 weeks by qRT-PCR analysis; format: functional, organism-based
Mus musculus [26] = organism: Mus musculus; test: Induction of […] glucose-stimulated insulin secretion in pancreatic islets isolated from KK-Ay diabetic mouse model at 0.4 mg added daily to normal chow pellets for 10 weeks followed by glucose stimulation of isolated pancreatic islets for 1 hr by radioimmunoassay relative to control; format: functional
Mus musculus [27] = organism: Mus musculus; test: Effect on FABP4 mRNA expression levels in liver of KK-Ay diabetic mouse model at 0.4 to 1.1 mg added daily to normal chow pellets for 10 weeks by qRT-PCR analysis; format: functional, organism-based
Mus musculus [28] = organism: Mus musculus; test: Effect on SOD2 mRNA expression levels in muscle of KK-Ay diabetic mouse model at 0.4 to 1.1 mg added daily to normal chow pellets for 10 weeks by qRT-PCR analysis; format: functional, organism-based
Mus musculus [29] = organism: Mus musculus; test: Effect on IRS2 mRNA expression levels in adipose tissue of KK-Ay diabetic mouse model at 0.4 to 1.1 mg added daily to normal chow pellets for 10 weeks by qRT-PCR analysis; format: functional, organism-based
Mus musculus [30] = organism: Mus musculus; test: Effect on FAS mRNA expression levels in liver of KK-Ay diabetic mouse model at 0.4 to 1.1 mg added daily to normal chow pellets for 10 weeks by qRT-PCR analysis; format: functional, organism-based
Mus musculus [31] = organism: Mus musculus; test: Effect on Acaca mRNA expression levels in adipose tissue of KK-Ay diabetic mouse model at 0.4 to 1.1 mg added daily to normal chow pellets for 10 weeks by qRT-PCR analysis; format: functional, organism-based
Mus musculus [32] = organism: Mus musculus; test: Effect on SOD2 mRNA expression levels in adipose tissue of KK-Ay diabetic mouse model at 0.4 to 1.1 mg added daily to normal chow pellets for 10 weeks by qRT-PCR analysis; format: functional, organism-based

Structure (SMILES): C[C@@]12CCc3occc3[C@H]1CC[C@@]13C[C@H](CC[C@H]12)[C@@](O)(CO)C3
- Activity (Mus musculus [1]): inactive
- Activity (Mus musculus [2]): 5.4 g
- Activity (Mus musculus [3]): inactive
- Activity (Mus musculus [4]): inactive
- Activity (Mus musculus [5]): inactive
- Activity (Mus musculus [6]): inactive
- Activity (Mus musculus [7]): inactive
- Activity (Mus musculus [8]): Active
- Activity (Mus musculus [9]): 5.9 g
- Activity (Mus musculus [10]): inactive
- Activity (Mus musculus [11]): inactive
- Activity (Mus musculus [12]): inactive
- Activity (Mus musculus [13]): inactive
- Activity (Mus musculus [14]): Non-Toxic
- Activity (Mus musculus [15]): inactive
- Activity (Mus musculus [16]): inactive
- Activity (Mus musculus [17]): inactive
- Activity (Mus musculus [18]): inactive
- Activity (Mus musculus [19]): 75%
- Activity (Mus musculus [20]): inactive
- Activity (Mus musculus [21]): inactive
- Activity (Mus musculus [22]): 17.3 mmol/L
- Activity (Mus musculus [23]): inactive
- Activity (Mus musculus [24]): inactive
- Activity (Mus musculus [25]): inactive
- Activity (Mus musculus [26]): 87%
- Activity (Mus musculus [27]): inactive
- Activity (Mus musculus [28]): inactive
- Activity (Mus musculus [29]): inactive
- Activity (Mus musculus [30]): inactive
- Activity (Mus musculus [31]): inactive
- Activity (Mus musculus [32]): inactive
